Test results as given in patent US11000033B2, “Ketone or oxime compound, and herbicide” (NISSAN CHEMICAL CORPORATION, priority 2014, dated 2021).

Columns and labels:
Format in all cases: in vivo
[1] = test system: Scirpus juncoides; experiment: Test Example 1: herbicidal activity, application before weed generation in submerged conditions (symbol B); details: application herbicide amount 320 g/ha
Procedure, shortened: (§1)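 Ratings (5: ≥90%, near complete withering; 4: 70–<90%; 3: 40–<70%; 2: 20–<40%; 1: 5–<20%; 0: ≤5%) were assigned 3 weeks after the diluted emulsion was applied to the water surface of freshly sown, submerged pots.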

[2] = test system: Monochoria vaginalis; experiment: Test Example 1: herbicidal activity, application before weed generation in submerged conditions (symbol C); details: application herbicide amount 320 g/ha
Procedure, shortened: as §1

[3] = test system: Echinochloa oryzacola Vasing.; experiment: Test Example 2: herbicidal activity, application during weed generation in submerged conditions (symbol A); details: Table 23; application herbicide amount 320 g/ha; grade 0-5 by criteria of Test Example 1
Procedure, shortened: (§2)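 Scoring of herbicidal effect took place 3 weeks after treatment, using the criteria of the earlier test. Treatment was water-surface application of diluted emulsifiable compound at a set dose. Plants were at one- to two-leaf stage in submerged alluvial soil (4 cm depth), greenhouse 25-30° C.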

[4] = test system: Monochoria vaginalis; experiment: Test Example 2: herbicidal activity, application during weed generation in submerged conditions (symbol C); details: Table 23; application herbicide amount 320 g/ha; grade 0-5 by criteria of Test Example 1
Procedure, shortened: as §2

[5] = test system: directly sowed rice plant; experiment: Test Example 3: effect on crop by foliage application, Wagner pot (symbol b); details: application herbicide amount 320 g/ha
Procedure, shortened: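 Steps: fill a 1/10000-are Wagner pot with alluvial soil; add water and mix to submerge at 0.1–0.5 cm depth; sow rice plus Echinochloa crus-galli var. crus-galli, Leptochloa chinensis and Cyperus difformis; grow in a 25–30 °C greenhouse.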

[6] = test system: Lolium multiflorum Lam.; experiment: Test Example 4: herbicidal effect by soil treatment (symbol K); details: application herbicide amount 320 g/ha
Procedure, shortened: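 Seeds were sown in sterilized diluvial soil, covered with about 1.5 cm of soil, and the soil surface was sprayed with a water-diluted emulsion of the compound at a predetermined rate. Plants grew in a greenhouse at 25° C. to 30° C.; effects were scored visually 3 weeks after application.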

[7] = test system: soybean; experiment: Test Example 4: effect on crop by soil treatment (symbol d); details: application herbicide amount 320 g/ha
Procedure, shortened: (§3)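 Crop seeds, among them rice, wheat, beet and rapeseed, were sown in sterilized diluvial soil and covered with about 1.5 cm of soil. Boxes were kept in a greenhouse at 25° C. to 30° C. for plant growth.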

[8] = test system: wheat; experiment: Test Example 4: effect on crop by soil treatment (symbol e); details: application herbicide amount 320 g/ha
Procedure, shortened: as §3

[9] = test system: Avena fatua; experiment: Test Example 5: herbicidal effect by foliage application, plastic box (symbol I); details: 320 g/ha, 3 weeks after application
Procedure, shortened: (§4)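 Sowing in sterilized diluvial soil, 14 days' greenhouse growth at 25° C. to 30° C., then uniform small-sprayer foliar application of aqueous emulsion dilution; plants scored three weeks afterwards.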

[10] = test system: Amaranthus retroflexus; experiment: Test Example 5: herbicidal effect by foliage application, plastic box (symbol N); details: 320 g/ha, 3 weeks after application
Procedure, shortened: as §4

[11] = test system: Veronica persica; experiment: Test Example 5: herbicidal effect by foliage application, plastic box (symbol R); details: 320 g/ha, 3 weeks after application
Procedure, shortened: as §4

[12] = test system: wheat; experiment: Test Example 5: effect on crop by foliage application, plastic box (symbol e); details: 320 g/ha, 3 weeks after application
Procedure, shortened: (§5)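 Greenhouse test at 25° C. to 30° C. Seeds of crops and weeds were spot-sown in boxes of sterilized diluvial soil under roughly 1.5 cm soil cover, then grown for foliage treatment.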

[13] = test system: rapeseed; experiment: Test Example 5: effect on crop by foliage application, plastic box (symbol g); details: 320 g/ha, 3 weeks after application
Procedure, shortened: as §5

[14] = test system: beet; experiment: Test Example 4: effect on crop by soil treatment (symbol f); details: application herbicide amount 320 g/ha
Procedure, shortened: as §3

Row | Compound | Herbicidal effect grade, B: Scirpus juncoides [1] | Herbicidal effect grade, C: Monochoria vaginalis [2] | Herbicidal effect grade, A: Echinochloa oryzacola Vasing. [3] | Herbicidal effect grade, C: Monochoria vaginalis [4] | effect on crop b (directly sowed rice plant), grade 0-5 [5] | K: Lolium multiflorum Lam., herbicidal effect grade [6] | d: soybean, effect on crop grade [7] | e: wheat, effect on crop grade [8] | I: Avena fatua, herbicidal effect grade [9] | N: Amaranthus retroflexus, herbicidal effect grade [10] | R: Veronica persica, herbicidal effect grade [11] | e: wheat, effect on crop grade [12] | g: rapeseed, effect on crop grade [13] | f: beet, effect on crop grade [14] | K (Lolium multiflorum Lam.) herbicidal effect grade [6] | d (soybean) effect on crop grade [7] | e (wheat) effect on crop grade [8]
1 | CCC(=O)CCC1CC(O)=C(c2c(C)cc(C)cc2C)C1=O (centres unmarked) [5-001] | 0 (Herbicidal ratio of 5% or lower (almost no effect)) | 0 (Herbicidal ratio of 5% or lower (almost no effect)) | 0 (Herbicidal ratio of 5% or lower (almost no effect)) | 0 (Herbicidal ratio of 5% or lower (almost no effect)) | 5 (Herbicidal ratio of 90% or more (almost completely withered)) | 5 (Herbicidal ratio of 90% or more (almost completely withered)) | 0 (Herbicidal ratio of 5% or lower (almost no effect)) | 0 (Herbicidal ratio of 5% or lower (almost no effect)) | 4 (Herbicidal ratio of 70% or higher and lower than 90%) | 0 (Herbicidal ratio of 5% or lower (almost no effect)) | 0 (Herbicidal ratio of 5% or lower (almost no effect)) | 0 (Herbicidal ratio of 5% or lower (almost no effect)) | 0 (Herbicidal ratio of 5% or lower (almost no effect)) | – | – | – | –
2 | CON=C(C)CC1CC(O)=C(c2c(C)cc(C(C)=O)cc2C)C1=O (centres unmarked) [6-026] | 0 (Herbicidal ratio of 5% or lower (almost no effect)) | 0 (Herbicidal ratio of 5% or lower (almost no effect)) | – | – | 5 (Herbicidal ratio of 90% or more (almost completely withered)) | 1 (Herbicidal ratio of 5% or higher and lower than 20%) | 0 (Herbicidal ratio of 5% or lower (almost no effect)) | 0 (Herbicidal ratio of 5% or lower (almost no effect)) | 5 (Herbicidal ratio of 90% or more (almost completely withered)) | 0 (Herbicidal ratio of 5% or lower (almost no effect)) | 1 (Herbicidal ratio of 5% or higher and lower than 20%) | 3 (Herbicidal ratio of 40% or higher and lower than 70%) | 3 (Herbicidal ratio of 40% or higher and lower than 70%) | 0 (Herbicidal ratio of 5% or lower (almost no effect)) | – | – | –
3 | CON=C(C)CC1CC(O)=C(c2c(C)cc(C(=O)OC)cc2C)C1=O (centres unmarked) [6-023] | 0 (Herbicidal ratio of 5% or lower (almost no effect)) | 0 (Herbicidal ratio of 5% or lower (almost no effect)) | – | – | 5 (Herbicidal ratio of 90% or more (almost completely withered)) | 5 (Herbicidal ratio of 90% or more (almost completely withered)) | 0 (Herbicidal ratio of 5% or lower (almost no effect)) | 0 (Herbicidal ratio of 5% or lower (almost no effect)) | 5 (Herbicidal ratio of 90% or more (almost completely withered)) | 0 (Herbicidal ratio of 5% or lower (almost no effect)) | 1 (Herbicidal ratio of 5% or higher and lower than 20%) | 3 (Herbicidal ratio of 40% or higher and lower than 70%) | 3 (Herbicidal ratio of 40% or higher and lower than 70%) | – | – | – | –
4 | C#CCOC1=C(c2c(C)cc(C)cc2C)C(=O)C(CC(C)=NOC)C1 (centres unmarked) [1-008] | 3 (Herbicidal ratio of 40% or higher and lower than 70%) | 0 (Herbicidal ratio of 5% or lower (almost no effect)) | 5 (Herbicidal ratio of 90% or more (almost completely withered)) | 0 (Herbicidal ratio of 5% or lower (almost no effect)) | 5 (Herbicidal ratio of 90% or more (almost completely withered)) | – | – | – | 4 (Herbicidal ratio of 70% or higher and lower than 90%) | 0 (Herbicidal ratio of 5% or lower (almost no effect)) | 0 (Herbicidal ratio of 5% or lower (almost no effect)) | 0 (Herbicidal ratio of 5% or lower (almost no effect)) | 3 (Herbicidal ratio of 40% or higher and lower than 70%) | – | 5 (Herbicidal ratio of 90% or more (almost completely withered)) | 0 (Herbicidal ratio of 5% or lower (almost no effect)) | 0 (Herbicidal ratio of 5% or lower (almost no effect))
5 | Cc1cc(C)c(C2=C(O)CC(CC(=O)C(C)C)C2=O)c(C)c1 (centres unmarked) [2-016] | 0 (Herbicidal ratio of 5% or lower (almost no effect)) | 0 (Herbicidal ratio of 5% or lower (almost no effect)) | 4 (Herbicidal ratio of 70% or higher and lower than 90%) | 0 (Herbicidal ratio of 5% or lower (almost no effect)) | 5 (Herbicidal ratio of 90% or more (almost completely withered)) | 5 (Herbicidal ratio of 90% or more (almost completely withered)) | 0 (Herbicidal ratio of 5% or lower (almost no effect)) | 0 (Herbicidal ratio of 5% or lower (almost no effect)) | 4 (Herbicidal ratio of 70% or higher and lower than 90%) | 3 (Herbicidal ratio of 40% or higher and lower than 70%) | 0 (Herbicidal ratio of 5% or lower (almost no effect)) | 0 (Herbicidal ratio of 5% or lower (almost no effect)) | 4 (Herbicidal ratio of 70% or higher and lower than 90%) | – | – | – | –
6 | CON=C(C)CC1CC(O)=C(c2c(C)cc(-n3cc(Cl)cn3)cc2C)C1=O (mixture of isomers) [6-004] | 5 (Herbicidal ratio of 90% or more (almost completely withered)) | 2 (Herbicidal ratio of 20% or higher and lower than 40%) | 5 (Herbicidal ratio of 90% or more (almost completely withered)) | – | 5 (Herbicidal ratio of 90% or more (almost completely withered)) | 5 (Herbicidal ratio of 90% or more (almost completely withered)) | 0 (Herbicidal ratio of 5% or lower (almost no effect)) | 0 (Herbicidal ratio of 5% or lower (almost no effect)) | 4 (Herbicidal ratio of 70% or higher and lower than 90%) | 2 (Herbicidal ratio of 20% or higher and lower than 40%) | 3 (Herbicidal ratio of 40% or higher and lower than 70%) | 0 (Herbicidal ratio of 5% or lower (almost no effect)) | 4 (Herbicidal ratio of 70% or higher and lower than 90%) | – | – | – | –
7 | CON=C(C)CC1CC(OC(=O)OC)=C(c2c(C)cc(C)cc2C)C1=O (centres unmarked) [1-014] | 5 (Herbicidal ratio of 90% or more (almost completely withered)) | 2 (Herbicidal ratio of 20% or higher and lower than 40%) | 5 (Herbicidal ratio of 90% or more (almost completely withered)) | 3 (Herbicidal ratio of 40% or higher and lower than 70%) | 5 (Herbicidal ratio of 90% or more (almost completely withered)) | – | – | – | 5 (Herbicidal ratio of 90% or more (almost completely withered)) | 5 (Herbicidal ratio of 90% or more (almost completely withered)) | 3 (Herbicidal ratio of 40% or higher and lower than 70%) | 5 (Herbicidal ratio of 90% or more (almost completely withered)) | 4 (Herbicidal ratio of 70% or higher and lower than 90%) | – | 5 (Herbicidal ratio of 90% or more (almost completely withered)) | 4 (Herbicidal ratio of 70% or higher and lower than 90%) | –
